≈ marks a conversion by molar mass, not a printed value.
Columns and labels:
[1] = in vivo; conditions: Cyprinodon variegatus (sheepshead minnow, larval)
Procedure: (§1) […]. EPA/600/4-90/027F Washington, D.C.) conducted at Pacific Eco-Risk Laboratories, Martinez, Calif.
(§2) LOEC is the Lowest Observable Effect Concentration and is defined as the minimum concentration where mortality is observed for the test species. […] LC-50, the concentration that will cause mortality of 50% of the organisms tested within 96 h, is a calculated value based on all observations.
(§3) The solutions were mixed for 48 hours prior to the start of the bioassays. The solutions were diluted to perform bioassays at starting glutaraldehyde concentrations of 100, 50, 37.5, 25, and 10.5 mg/L. The results are summarized in Table X.

[2] = tested on: Larval Sheepshead Minnow (Cyprinodon variegatus); assay: in vivo; conditions: Cyprinodon variegatus (sheepshead minnow), 96 h
Procedure: as §1, §2, §3

[3] = tested on: bacterial inoculum; assay: Evaluation of biocides: inhibition of growth on FT diesel and ALAD diesel; format: cell-based, alkane degrading organisms; as to Growth, Test Results on ALAD Diesel Fuel: key: −: No Growth; +: Growth (White Unless Otherwise Indicated); as to Growth, Test Results on Fischer-Tropsch Diesel Fuel: key: −: No Growth; +: Growth (White Unless Otherwise Indicated)
Procedure: The ability of biocides to inhibit growth on a FT diesel and a low aromatics diesel fuel from Example 1 was investigated.
Test Conditions: 90 ml of growth media and 10 ml of either FT diesel or low sulfur (ALAD) diesel was added to 250 ml flasks. […] In addition to the 2 alkynes, glutaraldehyde (glutaric dialdehyde 50%), was tested. The following summarizes the test conditions:
100 ppm inhibitor (on a total test volume basis or 1000 ppm in diesel)
1% inhibitor (on a total test volume basis or 10% in diesel).
After inoculation, the flasks were place on a shaker-table (135 rpm) at room temperature and observed daily.

[4] = tested on: bacterial inoculum; assay: Neutralization of biocides with monoethanolamine; format: cell-based; conditions: for Growth, Neutralization of Biocides with MEA: minimal media:FT diesel 10:1; for onset of microbial growth (delayed from 3 days): no MEA
Procedure: In all experiments, a 10:1 ratio of minimal media to Fischer-Tropsch diesel fuel were prepared and evaluated in 250 ml flasks.
In addition to these experiments, several controls were run without Glutaraldehyde as follows: […]

O=CCCCC=O [G, glutaraldehyde]
LC50 at 96 h ([1]; 96 h, control experiment, separate compounds): 26 µg/mL (≈ 260 µM)
LC50 at 96 h ([1]; second experiment, as starting glutaraldehyde concentration, solutions mixed for 48 hours prior to bioassay): 25 µg/mL (≈ 250 µM)
LOEC [2]: 25 mg/L
NOEC [2]: 13 mg/L
effectiveness as biocide (inhibits microbial growth) ([3]; ALAD diesel fuel): effective at a lower concentration
Growth, Test Results on Fischer-Tropsch Diesel Fuel ([3]; FT Diesel + 1 Wt % biocide, Day 0): −
Growth, Test Results on Fischer-Tropsch Diesel Fuel ([3]; FT Diesel + 1 Wt % biocide, Day 1): −
Growth, Test Results on Fischer-Tropsch Diesel Fuel ([3]; FT Diesel + 1 Wt % biocide, Day 5): −
Growth, Test Results on Fischer-Tropsch Diesel Fuel ([3]; FT Diesel + 1 Wt % biocide, Day 7): −
Growth, Test Results on Fischer-Tropsch Diesel Fuel ([3]; FT Diesel + 1 Wt % biocide, Day 8): −
Growth, Test Results on Fischer-Tropsch Diesel Fuel ([3]; FT Diesel + 1 Wt % biocide, Day 19): −
Growth, Test Results on Fischer-Tropsch Diesel Fuel ([3]; FT Diesel + 100 ppm biocide, Day 0): −
Growth, Test Results on Fischer-Tropsch Diesel Fuel ([3]; FT Diesel + 100 ppm biocide, Day 1): −
Growth, Test Results on Fischer-Tropsch Diesel Fuel ([3]; FT Diesel + 100 ppm biocide, Day 5): −
Growth, Test Results on Fischer-Tropsch Diesel Fuel ([3]; FT Diesel + 100 ppm biocide, Day 7): −
Growth, Test Results on Fischer-Tropsch Diesel Fuel ([3]; FT Diesel + 100 ppm biocide, Day 8): −
Growth, Test Results on Fischer-Tropsch Diesel Fuel ([3]; FT Diesel + 100 ppm biocide, Day 19): +
effectiveness as biocide (inhibits microbial growth) ([3]; Fischer-Tropsch diesel fuel): effective at a lower concentration
Growth, Test Results on ALAD Diesel Fuel ([3]; LA Diesel + 1 Wt % biocide, Day 0): −
Growth, Test Results on ALAD Diesel Fuel ([3]; LA Diesel + 1 Wt % biocide, Day 1): −
Growth, Test Results on ALAD Diesel Fuel ([3]; LA Diesel + 1 Wt % biocide, Day 5): −
Growth, Test Results on ALAD Diesel Fuel ([3]; LA Diesel + 1 Wt % biocide, Day 7): −
Growth, Test Results on ALAD Diesel Fuel ([3]; LA Diesel + 1 Wt % biocide, Day 8): −
Growth, Test Results on ALAD Diesel Fuel ([3]; LA Diesel + 1 Wt % biocide, Day 19): −
Growth, Test Results on ALAD Diesel Fuel ([3]; LA Diesel + 100 ppm biocide, Day 0): −
Growth, Test Results on ALAD Diesel Fuel ([3]; LA Diesel + 100 ppm biocide, Day 1): −
Growth, Test Results on ALAD Diesel Fuel ([3]; LA Diesel + 100 ppm biocide, Day 5): −
Growth, Test Results on ALAD Diesel Fuel ([3]; LA Diesel + 100 ppm biocide, Day 7): −
Growth, Test Results on ALAD Diesel Fuel ([3]; LA Diesel + 100 ppm biocide, Day 8): −
Growth, Test Results on ALAD Diesel Fuel ([3]; LA Diesel + 100 ppm biocide, Day 19): −
Growth, Neutralization of Biocides with MEA ([4]; 1 ppm G, Time 0 days): −
Growth, Neutralization of Biocides with MEA ([4]; 1 ppm G, Time 1 days): −
Growth, Neutralization of Biocides with MEA ([4]; 1 ppm G, Time 2 days): −
Growth, Neutralization of Biocides with MEA ([4]; 1 ppm G, Time 3 days): −
Growth, Neutralization of Biocides with MEA ([4]; 1 ppm G, Time 7 days): −
Growth, Neutralization of Biocides with MEA ([4]; 1 ppm G, Time 9 days): +
Growth, Neutralization of Biocides with MEA ([4]; 1 ppm G, Time 14 days): +
onset of microbial growth (delayed from 3 days) ([4]; 1 ppm of glutaraldehyde): 9 days
Growth, Neutralization of Biocides with MEA ([4]; 10 ppm G, Time 0 days): −
Growth, Neutralization of Biocides with MEA ([4]; 10 ppm G, Time 1 days): −
Growth, Neutralization of Biocides with MEA ([4]; 10 ppm G, Time 2 days): −
Growth, Neutralization of Biocides with MEA ([4]; 10 ppm G, Time 3 days): −
Growth, Neutralization of Biocides with MEA ([4]; 10 ppm G, Time 7 days): −
Growth, Neutralization of Biocides with MEA ([4]; 10 ppm G, Time 9 days): −
Growth, Neutralization of Biocides with MEA ([4]; 10 ppm G, Time 14 days): −
onset of microbial growth (delayed from 3 days) ([4]; 10 ppm of glutaraldehyde): more than 14 days
Growth, Neutralization of Biocides with MEA ([4]; 100 ppm G, Time 0 days): −
Growth, Neutralization of Biocides with MEA ([4]; 100 ppm G, Time 1 days): −
Growth, Neutralization of Biocides with MEA ([4]; 100 ppm G, Time 2 days): −
Growth, Neutralization of Biocides with MEA ([4]; 100 ppm G, Time 3 days): −
Growth, Neutralization of Biocides with MEA ([4]; 100 ppm G, Time 7 days): −
Growth, Neutralization of Biocides with MEA ([4]; 100 ppm G, Time 9 days): −
Growth, Neutralization of Biocides with MEA ([4]; 100 ppm G, Time 14 days): −

From US6626122B2, “Deactivatable biocides in ballast water” (Chevron U.S.A. Inc, priority 2001, dated 2003)
